Assay results taken from patent publication US9062048B2, “Cyclohexyl-azetidinyl antagonists of CCR2” (Janssen Pharmaceutica NV, priority 2010, dated 2015).

Biological target: CCR2 (Homo sapiens (Human), UniProt P41597)
Assay: MCP-1 Receptor Binding Assay in THP-1 Cells;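 also: THP-1 is a human monocytic cell line, and nonspecific binding was defined with 1 µM unlabeled MCP-1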
Settings: 0.5 nM 125I labeled MCP-1, 2 hours at 30° C., read-out: Inhibition of MCP-1 Binding IC50 MCP1B

Chain of CCR2 (P41597 whole entry): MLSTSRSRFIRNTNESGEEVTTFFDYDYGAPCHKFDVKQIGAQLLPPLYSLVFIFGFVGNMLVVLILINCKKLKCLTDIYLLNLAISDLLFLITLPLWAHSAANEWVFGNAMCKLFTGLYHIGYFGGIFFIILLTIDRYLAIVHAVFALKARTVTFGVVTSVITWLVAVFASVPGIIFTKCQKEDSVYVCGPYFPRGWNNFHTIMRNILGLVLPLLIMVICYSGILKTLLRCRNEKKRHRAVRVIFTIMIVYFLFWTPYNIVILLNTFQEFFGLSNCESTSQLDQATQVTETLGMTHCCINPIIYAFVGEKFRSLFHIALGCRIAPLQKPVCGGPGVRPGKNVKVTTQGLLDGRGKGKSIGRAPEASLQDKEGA

SMILES | IC50 [µM]
O=C(CNc1ncnc2ccc(C(F)(F)F)cc12)NC1CN(C2CCC(N3CCCC3=O)CC2)C1 (stereo not drawn) [Example 40, N-(1-(4-(2-oxopyrrolidin-1-yl)cyclohexyl)azetidin-3-yl)-2-((6-(trifluoromethyl)quinazolin-4-yl)amino)acetamide] | 0.078
CCOC(=O)CC1CCC(N2CC(NC(=O)CNc3ncnc4ccc(C(F)(F)F)cc34)C2)CC1 (stereo not drawn) [Example 122] | 0.12
CNc1cnccc1C1CCC(N2CC(NC(=O)CNc3ncnc4ccc(C(F)(F)F)cc34)C2)CC1 (stereo not drawn) [Example 74, N-(1-(4-(3-(methylamino)pyridin-4-yl)cyclohexyl)azetidin-3-yl)-2-((6-(trifluoromethyl)quinazolin-4-yl)amino)acetamide] | 0.13
[2H][C@]1(N2CC(NC(=O)CNc3ncnc4ccc(C(F)(F)F)cc34)C2)CC[C@@H](C(C)C)CC1 [Example 118, N-(1-deutero-1-((1s,4s)-4-isopropylcyclohexyl)azetidin-3-yl)-2-((6-(trifluoromethyl)quinazolin-4-yl)amino)acetamide] | 0.085
CN(CC(=O)NC1CN([C@H]2CC[C@@](O)(c3nccs3)CC2)C1)c1ncnc2ccc(C(F)(F)F)cc12 [Example 64, N-(1-((1r,4r)-4-hydroxy-4-(thiazol-2-yl)cyclohexyl)azetidin-3-yl)-2-(methyl(6-(trifluoromethyl)quinazolin-4-yl)amino)acetamide] | 0.83
CC(C)[C@H](O)[C@H]1CC[C@H](N2CC(NC(=O)CNc3nncc4ccc(C(F)(F)F)cc34)C2)CC1 (racemic) [Example 160, N-(1-((1S,4r)-4-((S)-1-hydroxy-2-methylpropyl)cyclohexyl)azetidin-3-yl)-2-((7-(trifluoromethyl)phthalazin-1-yl)amino)acetamide] | 0.022
O=C(CNc1ncnc2ccc(C(F)(F)F)cc12)NC1CN([C@H]2CC[C@@H](C3CCOCC3)CC2)C1 [Example 38, N-(1-((1s,4s)-4-(tetrahydro-2H-pyran-4-yl)cyclohexyl)azetidin-3-yl)-2-((6-(trifluoromethyl)quinazolin-4-yl)amino)acetamide] | 0.16
CCOC(=O)[C@H]1CC[C@@H](N2CC(NC(=O)CNc3ncnc4ccc(C(F)(F)F)cc34)C2)CC1 [Example 106, (1s,4s)-ethyl 4-(3-(2-((6-(trifluoromethyl)quinazolin-4-yl)amino)acetamido)azetidin-1-yl)cyclohexanecarboxylate] | 0.013
CC[C@H](O)[C@H]1CC[C@H](N2CC(NC(=O)CNc3nccc4ncc(C(F)(F)F)cc34)C2)CC1 [Example 151] | > 25
C=CCC(O)(CC=C)[C@H]1CC[C@@H](N2CC(NC(=O)CNc3ncnc4ccc(C(F)(F)F)cc34)C2)CC1 [Example 31, N-(1-((1s,4s)-4-(4-hydroxyhepta-1,6-dien-4-yl)cyclohexyl)azetidin-3-yl)-2-((6-(trifluoromethyl)quinazolin-4-yl)amino)acetamide] | 0.3
CC1CCC(N2CC(NC(=O)CNc3ncnc4ccc(C(F)(F)F)cc34)C2)CC1 (stereo not drawn) [Example 119, N-(1-(4-methylcyclohexyl)azetidin-3-yl)-2-((6-(trifluoromethyl)quinazolin-4-yl)amino)acetamide] | 0.082
N#Cc1cc(NCC(=O)N[C@H]2C[C@@H](N3CCC(O)(c4cncs4)CC3)C2)c2cc(C(F)(F)F)ccc2n1 [Example 163, 2-((2-cyano-6-(trifluoromethyl)quinolin-4-yl)amino)-N-((1s,3s)-3-(4-hydroxy-4-(thiazol-5-yl)piperidin-1-yl)cyclobutyl)acetamide] | 2.6
O=C(CNc1ccnc2ccc(C(F)(F)F)cc12)NC1CN([C@H]2CC[C@@](O)(c3nccs3)CC2)C1 [Example 27] | 0.017
CCC(O)[C@H]1CC[C@@H](N2CC(NC(=O)CNc3nccc4ccc(C(F)(F)C(F)(F)F)cc34)C2)CC1 (stereo partly drawn) [Example 170, N-(1-((1R,4s)-4-(1-hydroxypropyl)cyclohexyl)azetidin-3-yl)-2-((7-(perfluoroethyl)isoquinolin-1-yl)amino)acetamide] | 0.072
O=C(CNc1ncnc2ccc(C(F)(F)F)cc12)NC1CN([C@H]2CC[C@@H](C(O)C(F)(F)F)CC2)C1 (stereo partly drawn) [Example 34, N-(1-((1R,4s)-4-(2,2,2-trifluoro-1-hydroxyethyl)cyclohexyl)azetidin-3-yl)-2-((6-(trifluoromethyl)quinazolin-4-yl)amino)acetamide] | 0.073
C#CC(O)[C@H]1CC[C@@H](N2CC(NC(=O)CNc3ncnc4ccc(C(F)(F)F)cc34)C2)CC1 (stereo partly drawn) [Example 95, N-(1-((1R,4s)-4-(1-hydroxyprop-2-yn-1-yl)cyclohexyl)azetidin-3-yl)-2-((6-(trifluoromethyl)quinazolin-4-yl)amino)acetamide] | 0.028
CCN(C(=O)OCc1ccccc1)[C@H]1CC[C@@H](N2CC(NC(=O)CNc3ncnc4ccc(C(F)(F)F)cc34)C2)CC1 [Example 47, Benzyl ethyl((1s,4s)-4-(3-(2-((6-(trifluoromethyl)quinazolin-4-yl)amino)acetamido)azetidin-1-yl)cyclohexyl)carbamate] | 0.16
CCC(NS(=O)(=O)C(F)(F)F)[C@H]1CC[C@@H](N2CC(NC(=O)CNc3ncnc4ccc(C(F)(F)F)cc34)C2)CC1 (stereo partly drawn) [Example 140, 2-((6-(trifluoromethyl)quinazolin-4-yl)amino)-N-(1-((1R,4s)-4-((S)-1-(trifluoromethylsulfonamido)propyl)cyclohexyl)azetidin-3-yl)acetamide] | 3
O=C(CNc1ncnc2ccc(C(F)(F)F)cc12)NC1CN([C@H]2CC[C@@H](C3C=CCO3)CC2)C1 (stereo partly drawn) [Example 10, N-(1-((1R,4s)-4-(2,5-dihydrofuran-2-yl)cyclohexyl)azetidin-3-yl)-2-((6-(trifluoromethyl)quinazolin-4-yl)amino)acetamide and N-(1-((1R,4r)-4-(2,5-dihydrofuran-2-yl)cyclohexyl)azetidin-3-yl)-2-((6-(trifluoromethyl)quinazolin-4-yl)amino)acetamide] | 0.009
[N-]=[N+]=NCC(O)[C@H]1CC[C@@H](N2CC(NC(=O)CNc3ncnc4ccc(C(F)(F)F)cc34)C2)CC1 (stereo partly drawn) [Example 19, N-(1-((1S,4s)-4-(2-azido-1-hydroxyethyl)cyclohexyl)azetidin-3-yl)-2-((6-(trifluoromethyl)quinazolin-4-yl)amino)acetamide] | 0.016
CC(C)[C@H](O)C1CCC(N2CC(NC(=O)CNc3ncnc4ccc(C(F)(F)F)cc34)C2)CC1 (single isomer, unassigned; (-)) [(−) 8] | 0.01
COCC(O)[C@H]1CC[C@@H](N2CC(NC(=O)CNc3ncnc4ccc(C(F)(F)F)cc34)C2)CC1 (stereo partly drawn) [Example 20, N-(1-((1S,4s)-4-(1-hydroxy-2-methoxyethyl)cyclohexyl)azetidin-3-yl)-2-((6-(trifluoromethyl)quinazolin-4-yl)amino)acetamide] | 0.058
CCC(NC(N)=O)[C@H]1CC[C@@H](N2CC(NC(=O)CNc3ncnc4ccc(C(F)(F)F)cc34)C2)CC1 (stereo partly drawn) [Example 141, 2((6-(trifluoromethyl)quinazolin-4-yl)amino)-N-(1-((1R,4s)-4-((S)-1-ureidopropyl)cyclohexyl)azetidin-3-yl)acetamide] | 0.25
O=C(CNc1ncnc2ccc(C(F)(F)F)cc12)NC1CN([C@H]2CC[C@@H](C3CCCO3)CC2)C1 (stereo partly drawn) [Example 15] | 0.049
